Experimental data: patent publication US20220195027A1, “ANTI-ANGIOGENESIS THERAPY FOR THE TREATMENT OF PREVIOUSLY TREATED BREAST CANCER” (Genentech, Inc., priority 2009, published 2022)
Like-named read-outs stand apart in the source and are kept apart here.

Experiments:
metastatic breast cancer [1] = settings: MBC patients with prior anthracycline therapy; cited from earlier work
metastatic breast cancer [2] = settings: patients who previously received or were not candidates for anthracyclines; cited from earlier work
[3] = system: previously treated metastatic HER2-negative breast cancer; experiment: RIBBON 2 Phase III study, efficacy (PFS, OS) of bevacizumab or placebo plus chemotherapy; format: in vivo, human; settings: for Progression free survival, result in words: in combination with chemotherapy, compared to chemotherapy alone
Experimental: The doctors treating the women in the study chose the type of chemotherapy used in combination with Avastin and the chemotherapies were assessed together in the primary endpoint analysis. […] Ribbon 2 was an international, multicenter, randomized, double-blind, placebo-controlled clinical study that enrolled 684 patients with metastatic HER2-negative breast cancer who had previously received chemotherapy for their metastatic disease. See Study Conduct in Table 1 and Patient Characteristics in Table 2. The trial evaluated the addition of either Avastin® (bevacizumab) or placebo to an investigator's choice of chemotherapy. The following chemotherapy regimens were used in the study: taxanes: paclitaxel, protein-bound paclitaxel or docetaxel; gemcitabine; capecitabine; or vinorelbine. Bevacizumab (5 mg/kg Weekly Equivalent) 15 mg/kg IV q 3 weeks; or […] Plus Chemotherapy Taxane • Paclitaxel (e.g., Taxol®): 90 mg/m^2 IV every week for 3 weeks followed by 1 week of rest; or • Paclitaxel (e.g., Taxol®): 175 mg/m^2 IV every 3 weeks; or • Paclitaxel protein-bound particles (Abraxane®): 260 mg/m^2 IV every 3 weeks; or • Docetaxel (Taxotere®): 75-100 mg/m^2 IV every 3 weeks; or Gemcitabine (Gemzar®): 1250 mg/m^2 IV on Days 1 and 8 of each 3-week cycle; or Vinorelbine (Navelbine®): 30 mg/m^2 IV every week; or […] In the study, PFS was defined as the time from randomization to disease progression or death as assessed by the treating physicians in the study (investigator-assessed). Secondary endpoints included objective response rate, duration of response, one-year survival rate, overall survival, PFS assessment by chemotherapy type and safety. […] See Table 3 Primary Efficacy Analysis of PFS and FIG. 2 (Primary Endpoint of PFS) and FIG. 3 (Cohort-Specific Analyses of PFS). PFS results were generally consistent across chemotherapy cohorts with the exception of the small vinorelbine sub-group. Other sub-groups (age, triple negative, etc.) were generally consistent with the primary PFS results. The observed improvement in overall PFS was supported by the secondary efficacy endpoint of ORR. See Table 4 for Interim Efficacy Analysis of OS. […] See, e.g., Table 5, Safety Summary, Safety Population, Table 6 Selected AEs, Safety Population and Table 7 Safety Summary by Chemotherapy Cohort, Safety Population. Bevacizumab was beneficial to patients as a second-line treatment.

[4] = RIBBON 2 Phase III study, safety (adverse events), safety population; format: in vivo; settings: in combination with chemotherapy
From the text: Ribbon 2 was an international, multicenter, randomized, double-blind, placebo-controlled clinical study that enrolled 684 patients with metastatic HER2-negative breast cancer who had previously received chemotherapy for their metastatic disease. […] The trial evaluated the addition of either Avastin® (bevacizumab) or placebo to an investigator's choice of chemotherapy. The following chemotherapy regimens were used in the study: taxanes: paclitaxel, protein-bound paclitaxel or docetaxel; gemcitabine; capecitabine; or vinorelbine.

| Compound | survival (metastatic breast cancer [1]) | time to disease progression (metastatic breast cancer [1]) | survival (metastatic breast cancer [2]) | time to progression (metastatic breast cancer [2]) | PFS stratified analysis HR (95% CI) ([3]; Chemo/BV vs Chemo/PL, ITT population) | PFS median ([3]; ITT population, investigator-assessed) | Progression free survival, result in words [3] | Progression free survival, result in words ([3]; listed as Avastin) | Safety signals, result in words [4] | Safety signals, result in words ([4]; listed as Avastin) |
| --- | --- | --- | --- | --- | --- | --- | --- | --- | --- | --- |
| CC(=O)O[C@@]12CO[C@@H]1C[C@H](O)[C@@]1(C)C(=O)[C@H](O)C3=C(C)[C@@H](OC(=O)[C@H](O)[C@@H](NC(=O)OC(C)(C)C)c4ccccc4)C[C@@](O)([C@@H](OC(=O)c4ccccc4)[C@H]21)C3(C)C [docetaxel] | 11.4 months | 4.4 months | 11.5 months | 4.2 months | – | – | – | – | – | – |
| bevacizumab: recombinant humanized anti-VEGF monoclonal antibody with human IgG1 framework and CDRs from murine antibody A.4.6.1 | – | – | – | – | 0.775 | 7.2 months | increase in progression free survival | increased the time | No new bevacizumab safety signals were observed | no new Avastin safety signals were observed |
